Assay results from patent US8586550B2, “Thiazole derivatives as SGLT2 inhibitors and pharmaceutical composition comprising same” (Green Cross Corporation, priority 2010, dated 2013).
pIC50: −log10 of the molar value.

These compounds were tested against T1, Human SGLT2 (hSGLT2) (Homo sapiens, UniProt P31639) (assay: Sodium-dependent glucose transport (14C-AMG uptake) assay in CHO cells stably expressing hSGLT2). Settings: CHO cells expressing hSGLT2, 14C-AMG uptake, 37° C. for 2 h; single determinations; read-out: hSGLT2 Inhibitory Activity IC50.
T1 construct: expressed in transfected cells
T1 sequence (P31639 1-672): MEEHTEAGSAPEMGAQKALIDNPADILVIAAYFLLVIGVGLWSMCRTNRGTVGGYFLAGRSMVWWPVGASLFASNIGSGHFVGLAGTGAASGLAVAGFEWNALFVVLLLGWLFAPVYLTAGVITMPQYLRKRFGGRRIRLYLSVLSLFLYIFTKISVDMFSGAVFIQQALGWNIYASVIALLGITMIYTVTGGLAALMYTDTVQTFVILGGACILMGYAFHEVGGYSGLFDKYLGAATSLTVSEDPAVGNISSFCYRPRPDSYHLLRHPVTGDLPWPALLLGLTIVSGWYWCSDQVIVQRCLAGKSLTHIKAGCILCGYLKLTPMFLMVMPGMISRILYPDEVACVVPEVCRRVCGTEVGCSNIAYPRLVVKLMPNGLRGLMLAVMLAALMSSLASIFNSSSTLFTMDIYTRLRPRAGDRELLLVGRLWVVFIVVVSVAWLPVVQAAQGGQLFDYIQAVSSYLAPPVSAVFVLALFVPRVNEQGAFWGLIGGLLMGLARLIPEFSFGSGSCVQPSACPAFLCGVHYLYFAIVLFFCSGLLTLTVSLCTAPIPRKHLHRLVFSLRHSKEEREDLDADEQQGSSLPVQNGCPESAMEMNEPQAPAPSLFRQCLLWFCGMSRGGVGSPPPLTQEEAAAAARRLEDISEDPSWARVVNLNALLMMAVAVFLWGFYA
Assay type: cell-based
Excerpt: Cloning and Cell Line Construction for Human SGLT2
Human SGLT2 (hSGLT2) gene was amplified by PCR from cDNA-Human Adult Normal Tissue Kidney (Invitrogen). The hSGLT2 sequence was cloned into pcDNA3.1(+) for mammalian expression and were stably transfected into chinese hamster ovary (CHO) cells. SGLT2-expressing clones were selected based on resistance to G418 antibiotic (Geneticin) and activity in the ^14C-α-methyl-D-glucopyranoside (^14C-AMG) uptake assay.
Inhibitory Effects on Human SGLT2 Activities
For sodium-dependent glucose transport assay, cells expressing hSGLT2 were seeded into a 96-well culture plate at a density of 5×10^4 cells/well in RPMI medium 1640 containing 10% fetal bovine serum. The cells were used 1 day after plating. They were incubated in pretreatment buffer (10 mM HEPES, 5 mM Tris, 140 mM choline chloride, 2 mM KCl, 1 mM CaCl2, and 1 mM MgCl2, pH 7.4) at 37° C. for 10 min. They were then incubated in uptake buffer (10 mM HEPES, 5 mM Tris, 140 mM NaCl, 2 mM KCl, 1 mM CaCl2, 1 mM MgCl2, and 1 mM ^14C-nonlabeled AMG, pH 7.4) containing ^14C-labeled (8 μM) and inhibitor or dimethylsulfoxide (DMSO) vehicle at 37° C. for 2 h. Cells were washed twice with washing buffer (pretreatment buffer containing 10 mM AMG at room temperature) and then the radioactivity was measured using a liquid scintillation counter. IC50 was determined by nonlinear regression analysis using GraphPad PRISM [Katsuno, K. et al. J. Pharmacol. Exp. Ther. 2007, 320, 323-330; Han, S. et al. Deabetes, 2008, 57, 1723-1729].

Compound	pIC50
CCCc1cnc(Cc2cc([C@@H]3O[C@H](CO)C(O)[C@H](O)[C@H]3O)c3ccccc3c2OC)s1 (stereo in doubt) [Example 99, (2R,3R,4R,5R,6S)-2-(Hydroxymethyl)-6-(4-methoxy-3-((5-propylthiazol-2-yl)methyl)naphthalen-1-yl)-tetrahydro-2H-pyran-3,4,5-triol]	7.72
OC[C@H]1O[C@@H](c2ccc(Cl)c(Cc3ncc(-c4ccsc4)s3)c2)[C@H](O)[C@@H](O)[C@@H]1O [Example 1, (2S,3R,4R,5S,6R)-2-(4-Chloro-3-((5-(thiophen-3-yl)thiazol-2-yl)methyl)phenyl)-6-(hydroxymethyl)-tetrahydro-2H-pyran-3,4,5-triol]	8.70
COc1c(Cc2ncc(-c3ccc(F)cc3)s2)cc([C@@H]2O[C@H](CO)[C@@H](O)[C@H](O)[C@H]2O)c2ccccc12 [Example 2, (2S,3R,4R,5S,6R)-2-(3-((5-(4-Fluorophenyl)thiazol-2-yl)methyl)-4-methoxynaphthalen-1-yl)-6-(hydroxymethyl)-tetrahydro-2H-pyran-3,4,5-triol]	7.92
OC[C@H]1O[C@@H](c2ccc(Cl)c(C3(c4ncc(-c5ccco5)s4)CC3)c2)[C@H](O)[C@@H](O)[C@@H]1O [Example 3, (2S,3R,4R,5S,6R)-2-(4-Chloro-3-(1-(5-(furan-2-yl)thiazol-2-yl)cyclopropyl)phenyl)-6-(hydroxymethyl)-tetrahydro-2H-pyran-3,4,5-triol]	7.33
OC[C@H]1O[C@@H](c2ccc(C(F)(F)F)c(Cc3ncc(-c4ccco4)s3)c2)[C@H](O)[C@@H](O)[C@@H]1O [Example 4, (2S,3R,4R,5S,6R)-2-(3-((5-(Furan-2-yl)thiazol-2-yl)methyl)-4-(trifluoromethyl)phenyl)-6-(hydroxymethyl)-tetrahydro-2H-pyran-3,4,5-triol]	8.01
OC[C@H]1O[C@@H](c2ccc(Cl)c(Cc3ncc(-c4ccco4)s3)c2)[C@H](O)[C@@H](O)[C@@H]1O [Example 5, (2S,3R,4R,5S,6R)-2-(4-Chloro-3-((5-(furan-2-yl)thiazol-2-yl)methyl)phenyl)-6-(hydroxymethyl)-tetrahydro-2H-pyran-3,4,5-triol]	8.76
OC[C@H]1O[C@@H](c2ccc(Cl)c(Cc3ncc(-c4ccoc4)s3)c2)[C@H](O)[C@@H](O)[C@@H]1O [Example 6, (2S,3R,4R,5S,6R)-2-(4-Chloro-3-((5-(furan-3-yl)thiazol-2-yl)methyl)phenyl)-6-(hydroxymethyl)-tetrahydro-2H-pyran-3,4,5-triol]	8.20
OC[C@H]1O[C@@H](c2ccc(Cl)c(Cc3ncc(-c4cccs4)s3)c2)[C@H](O)[C@@H](O)[C@@H]1O [Example 7, (2S,3R,4R,5S,6R)-2-(4-Chloro-3-((5-(thiophen-2-yl)thiazol-2-yl)methyl)phenyl)-6-(hydroxymethyl)tetrahydro-2H-pyran-3,4,5-triol]	8.49
OC[C@H]1O[C@@H](c2ccc(Cl)c(Cc3ncc(-c4ccc(Cl)s4)s3)c2)[C@H](O)[C@@H](O)[C@@H]1O [Example 8, (2S,3R,4R,5S,6R)-2-(4-Chloro-3-((5-(5-chlorothiophen-2-yl)thiazol-2-yl)methyl)phenyl)-6-(hydroxymethyl)tetrahydro-2H-pyran-3,4,5-triol]	7.88
OC[C@H]1O[C@@H](c2ccc(Cl)c(Cc3ncc(-c4nccs4)s3)c2)[C@H](O)[C@@H](O)[C@@H]1O [Example 9, (2S,3R,4R,5S,6R)-2-(3-(2,5′-Bithiazol-2′-ylmethyl)-4-chlorophenyl)-6-(hydroxymethyl)-tetrahydro-2H-pyran-3,4,5-triol]	8.13
OC[C@H]1O[C@@H](c2ccc(Cl)c(Cc3ncc(-c4ccccn4)s3)c2)[C@H](O)[C@@H](O)[C@@H]1O [Example 10, (2S,3R,4R,5S,6R)-2-(4-Chloro-3-((5-(pyridin-2-yl)thiazol-2-yl)methyl)phenyl)-6-(hydroxymethyl)-tetrahydro-2H-pyran-3,4,5-triol]	8.16
OC[C@H]1O[C@@H](c2ccc(Cl)c(Cc3ncc(-c4ccc(F)cc4)s3)c2)[C@H](O)[C@@H](O)[C@@H]1O [Example 11, (2S,3R,4R,5S,6R)-2-(4-Chloro-3-((5-(4-fluorophenyl)thiazol-2-yl)methyl)phenyl)-6-(hydroxymethyl)-tetrahydro-2H-pyran-3,4,5-triol]	7.67
CCc1cnc(Cc2cc([C@@H]3O[C@H](CO)[C@@H](O)[C@H](O)[C@H]3O)ccc2Cl)s1 [Example 12, (2S,3R,4R,5S,6R)-2-(4-chloro-3-((5-ethylthiazol-2-yl)methyl)phenyl)-6-(hydroxymethyl)-tetrahydro-2H-pyran-3,4,5-triol]	7.78
CCCCc1cnc(Cc2cc([C@@H]3O[C@H](CO)[C@@H](O)[C@H](O)[C@H]3O)ccc2Cl)s1 [Example 13, (2S,3R,4R,5S,6R)-2-(3-((5-Butylthiazol-2-yl)methyl)-4-chlorophenyl)-6-(hydroxymethyl)-tetrahydro-2H-pyran-3,4,5-triol]	6.92
CCCCCc1cnc(Cc2cc([C@@H]3O[C@H](CO)[C@@H](O)[C@H](O)[C@H]3O)ccc2Cl)s1 [Example 14, (2S,3R,4R,5S,6R)-2-(4-Chloro-3-((5-pentylthiazol-2-yl)methyl)phenyl)-6-(hydroxymethyl)-tetrahydro-2H-pyran-3,4,5-triol]	7.88
CCCCCCc1cnc(Cc2cc([C@@H]3O[C@H](CO)[C@@H](O)[C@H](O)[C@H]3O)ccc2Cl)s1 [Example 15, (2S,3R,4R,5S,6R)-2-(4-Chloro-3-((5-hexylthiazol-2-yl)methyl)phenyl)-6-(hydroxymethyl)-tetrahydro-2H-pyran-3,4,5-triol]	8.30
CC(C)c1cnc(Cc2cc([C@@H]3O[C@H](CO)[C@@H](O)[C@H](O)[C@H]3O)ccc2Cl)s1 [Example 16, (2S,3R,4R,5S,6R)-2-(4-Chloro-3-((5-isopropylthiazol-2-yl)methyl)phenyl)-6-(hydroxymethyl)-tetrahydro-2H-pyran-3,4,5-triol]	7.29
C=CCc1cnc(Cc2cc([C@@H]3O[C@H](CO)[C@@H](O)[C@H](O)[C@H]3O)ccc2Cl)s1 [Example 17, (2S,3R,4R,5S,6R)-2-(3-((5-Allylthiazol-2-yl)methyl)-4-chlorophenyl)-6-(hydroxymethyl)-tetrahydro-2H-pyran-3,4,5-triol]	7.94
C/C=C(\C)c1cnc(Cc2cc([C@@H]3O[C@H](CO)[C@@H](O)[C@H](O)[C@H]3O)ccc2Cl)s1 [Example 18, (2S,3R,4R,5S,6R,E)-2-(3-((5-(but-2-en-2-yl)thiazol-2-yl)methyl)-4-chlorophenyl)-6-(hydroxymethyl)-tetrahydro-2H-pyran-3,4,5-triol]	8.33
OC[C@H]1O[C@@H](c2ccc(Cl)c(Cc3ncc(C4CCCC4)s3)c2)[C@H](O)[C@@H](O)[C@@H]1O [Example 19, (2S,3R,4R,5S,6R)-2-(4-Chloro-3-((5-cyclopentylthiazol-2-yl)methyl)phenyl)-6-(hydroxymethyl)-tetrahydro-2H-pyran-3,4,5-triol]	8.01
OC[C@H]1O[C@@H](c2ccc(Cl)c(Cc3ncc(C4CCCCC4)s3)c2)[C@H](O)[C@@H](O)[C@@H]1O [Example 20, (2S,3R,4R,5S,6R)-2-(4-Chloro-3-((5-cyclohexylthiazol-2-yl)methyl)phenyl)-6-(hydroxymethyl)-tetrahydro-2H-pyran-3,4,5-triol]	7.60
CCOc1cnc(Cc2cc([C@@H]3O[C@H](CO)[C@@H](O)[C@H](O)[C@H]3O)ccc2Cl)s1 [Example 21, (2S,3R,4R,5S,6R)-2-(4-Chloro-3-((5-ethoxythiazol-2-yl)methyl)phenyl)-6-(hydroxymethyl)-tetrahydro-2H-pyran-3,4,5-triol]	7.73
CCCOc1cnc(Cc2cc([C@@H]3O[C@H](CO)[C@@H](O)[C@H](O)[C@H]3O)ccc2Cl)s1 [Example 22, (2S,3R,4R,5S,6R)-2-(4-Chloro-3-((5-propoxythiazol-2-yl)methyl)phenyl)-6-(hydroxymethyl)-tetrahydro-2H-pyran-3,4,5-triol]	7.91
